Source: patent US5039665A, “Use of fructose-1,6-diphosphate for treating myocardial infarction” (priority 1990, dated 1991)
“And” between values parts separate entries of the source, which are not always exact repeats. Equal entries are not always repeated. “Also recorded” adds a separate entry of the source.

How the values were obtained:
[1] = tested on: dogs subjected to hemorrhagic shock; experiment: irreversible hemorrhagic shock in dogs (modified Wiggers technique, 35 mm Hg for 3 hours); type: in vivo, dog; conditions: for survival after retransfusion: retransfused at three hours
Description: In the experiments regarding an irreversible hemorrhagic shock, results were obtained in the dog model using Wigger's modified technique. We compared a group of animals receiving IV administration of fructose-1,6-diphosphate (FDP) to a group receiving equimolar glucose.
The experiments were performed in b 25 pentobarbital anesthetized (30 mg/kg IV) mongrel dogs of both sexes. After induction of anesthesia the animals were […] and ventilated with a Harvard respiration pump with the use of ambient air. Secured in the left lateral decubitus position on the fluoroscopic table, a femoral artery was used to introduce a large bore polyethylene catheter which was connected to a 1.5 liter bottle elevated at 35 mm Hg above the atrial level. In the connecting system an external calibrated electromagnetic flow probe (Statham) was incorporated in order to follow the direction and amount of blood flow. The pressure in this system was monitored through a side opening with the aid of a Statham pressure gauge. The other femoral artery was percutaneously catheterized and a Judkins type pigtail catheter was advanced to the aortic root. In the course of the experiments this catheter was placed intermittently into the left ventricle when recordings were made. This set-up enable us to monitor both aortic and left ventricular pressures via a single catheter. The femoral vein on the side where the incision was made was catheterized as well as a superficial vein of the front limb transutaneously for administration of the FDP, glucose, heparin and supplemental anesthetic. Parameters such as aortic, ventricular and femoral pressures, and EKG were monitored on an Electronics for Medicine DR-8 recorder. Recording of these parameters was made every 15 min. Heparin ([…] initially and thereafter 3 mg/kg/2 hrs) and antibiotics were given to all animals that were allowed to recover. A control period of one hour was allowed prior to bleeding the animal. During this period two arterial blood samples were drawn for pH, pO2, pCO2, pCO2 combining power and lactic acid determinations. During the oliegemic phase four arterial samples were taken for determination of the same parameters described at 30 min, 1 hr, 2 hrs, and 2 hrs 45 min.
The blood from the animals was withdrawn via the femoral artery (50-55 ml/min) until the means arterial pressure dropped to 35 mm Hg and from then on the pressure was kept at this level for three hours. The protocol for evaluating the therapeutic effect of FDP was designed in the following manner. […] Both groups received an additional 500 mg IV bolus of FDP or glucose every 30 min for the duration of the oligemic phase. In five controls and six treated dogs the chest was opened at three hours and with the aid of a specially designed cutting tool that had been cooled in liquid nitrogen, frozen transmural sections from the left ventricle were taken for ATP, creatine phosphate (CP), FDP and lactic acid determinations. The remaining 14 animals (6 controls and 8 treated with FDP) were retransfused at three hours and allowed to recover.
The epicardium and endocardium from the frozen tissue were separated (while still frozen) and homogenized in 6% perchloric acid. The supernatant was used to determine ATP, CP and lactate. The ATP and creatine phosphate were assessed with the method described by Lamprecht (Lamprecht, W., and P. Stein. Methods of Enzymatic Analysis. Ed: H. V. Bergmeyer, New York, Academic Press, 1963, p. 610.) while lactate was measured by the method of Marback (Marback, E. P., and M. H. Weil. Rapid enzymatic measurement of blood lactate and pyruvate. Clin. Chem. 13: 314, 1967). Tissue content of FDP was assessed by the method of Bucher and Hohorst (Bucher, T., and H. J. Hohorst. Dihydroxyacetone phosphate, fructose 1-6 diphosphate and D-glyceraldehyde 3-phosphate. In. Methods of Enzymatic Analysis. Ed: Bermeyer, New York, Academic Press, 1963, pgs. 246-252.)

blood = blood preservation: ATP content of refrigerated blood, 25, 50 and 100 mg per 10 ml; set-up: species or system dog
Description: The tests were also conducted under the conditions when 25mg, 50mg, and 100mg of FDP were mixed with 10ml of blood and 25mg, 50mg, and 100mg, of glucose were mixed with 10ml of blood. […]

heart preparation = conditions: infusion of Locke's solution plus sugar; cited from earlier work
[2] = tested on: dogs with acute regional myocardial ischemia; experiment: acute regional myocardial ischemia in dogs (coronary artery occlusion); type: in vivo, dog; conditions: FIG. 3; ischemic and normally perfused myocardium
[3] = tested on: dogs in surgical anesthesia; experiment: anesthetic requirement to maintain surgical anesthesia in dogs; type: in vivo, dog; conditions: FDP n=104 vs controls n=103
dog WBC = experiment: carbohydrate metabolism of dog white blood cells in vitro; type: cell-based
Description: The tests were also conducted to investigate the effect of FDP on white blood cells (WBC) on metabolism in vitro. […] It was experimentally assessed whether FDP can stimulate the carbohydrate metabolism of these cells at rest. A similar phenomenon observed for normal human erythrocytes, sickle cells and dog erythrocytes. From healthy humans and dogs, the white blood cells were separated and incubated at 37° Celsius for various periods of time with FDP, glucose and normal saline. At the end of incubation, ATP and intermediates of the glycolytic pathway were assessed. […] The pyruvic acid concentration in dog WBC incubated with FDP was 10 times greater than those incubated in glucose while those for the human WBC, this difference was of much lesser degree (X2). The dihydroxyacetone (DHA) in the human and canine WBC was 5 to 10 times greater in the FDP incubated than in the glucose ones.

rabbit ileum = experiment: force of contraction of isolated rabbit ileum; conditions: added to perfusate
Source text: (§1) To allow for a broader and more complete interpretation of the results, a small paragraph will be devoted to the ability of FDP to cross the cellular membranes.

[4] = FDP distribution after intracardiac administration in rat; type: in vivo; conditions: 10 min after administration
Source text: as §1

[5] = tissue ATP, lactate, FDP and trioses after IV FDP; type: in vivo; conditions: IV administration
Source text: as §1

[6] = tested on: dogs anesthetized with Surital; experiment: analeptic effect of intra-carotid administration on Surital (thiamylal) anesthesia in dogs; type: in vivo, dog; conditions: systemic administration
[7] = 25 mg with 10ml of blood, 24 hours
[8] = 25 mg with 10ml of blood, 48 hours
[9] = 50 mg with 10ml of blood, 24 hours
[10] = 50 mg with 10ml of blood, 48 hours
[11] = 100 mg with 10ml of blood, 24 hours
[12] = 100 mg with 10ml of blood, 48 hours

O=C[C@H](O)[C@@H](O)[C@H](O)[C@H](O)CO [glucose, reference compound]
ischemic EKG changes in control (glucose) animals ([1]; 55 min to 1 hour 15 minutes after onset of shock): All control animals demonstrated ischemic EKG changes
creatine phosphate (CP) in the endocardium, less than normal ([1]; at three hours): 88%
creatine phosphate (CP) in the epicardium, less than normal ([1]; at three hours): 64%
endocardial ATP content, fall ([1]; at three hours): 50%
endocardial/epicardial tissue lactate ratio ([1]; at three hours): 1.52±0.21
ST elevation ([1]; maximum at 2 hours, precordial leads): 0.55±0.17 mV
survival after retransfusion [1]: All 6 control animals that were retransfused died within 24 hours
ATP (blood; [7]): 0.475 m mole/ml
ATP (blood; [8]): 0.475 m mole/ml
ATP (blood; [9]): 0.375 m mole/ml
ATP (blood; [10]): 0.450 m mole/ml
ATP (blood; [11]): 0.250 m mole/ml
ATP (blood; [12]): 0.426 m mole/ml
amplitude and frequency of heart beats, lactic acid, pH and potassium during recovery (heart preparation): no significant difference

O=C(COP(=O)(O)O)[C@@H](O)[C@H](O)[C@H](O)COP(=O)(O)O [FDP, fructose-1,6-diphosphate]
outcome of irreversible experimental hemorrhagic shock ([1]; 3 hour duration at 35mm Hg AP): could be successfully treated with FDP
mortality ([1]; FDP by IV administration): zero
creatine phosphate (CP) depletion ([1]; FIG. 4, epicardium and endocardium, 35 mm. Hg. for 3 hours): prevents depletion of creatine phosphate (CP) in both epicardium and endocardium
ATP content in the epicardium ([1]; FIG. 4, hypotension of 35 mm. Hg. for 3 hours, FDP vs controls): no significant difference in ATP content
myocardial contractility ([1]; Intravenous administration): improves the myocardial contractility
arterial plasma lactic acid, course after 2 hours ([1]; after 2 hours of hemorrhage): the plasma lactate continued to rise
heart rate return towards control ([1]; after retransfusion): returned faster towards control
ATP myocardial content ([1]; at three hours): normal ATP myocardial content and no transmural gradient
CP in the epicardium (in words) ([1]; at three hours): no deficit in the epicardium
creatine phosphate (CP) in the endocardium, less than normal ([1]; at three hours): 18%
endocardial/epicardial tissue lactate ratio ([1]; at three hours): 2.26 ±0.26
ATP and CP content in the myocardium / endocardium ([1]; dog, in vivo): restores ATP and CP content in the myocardium
ST elevation (in words) ([1]; dog, in vivo): only minimal elevation was observed in two animals
activity of glycolysis in the endocardium ([1]; dog, in vivo): restores the depressed activity of glycolysis in the endocardium
heart rate ([1]; dog, in vivo): < 200 beats/min
plasma lactate and myocardial tissue lactate ([1]; dog, in vivo): increased plasma lactate and myocardial tissue lactate
ATP and CP content in the myocardium / endocardium ([1]; dog, in vivo, listed as Fructose diphosphate): increased significantly the ATP and CP in the endocardium
plasma lactate ([1]; measured at 2 hrs 45 min after the onset of hypotension): 124±16 mg %
arterial pH ([1]; not exceptional in the group treated with FDP): ≤ 6.8
animals with spontaneous reversal of blood flow (from the bottle to the animal) ([1]; oligemic phase): only two of them reversed their flow
electrocardiographic (EKG) ischemic changes ([1]; oligemic phase): In both animals after FDP was given the ischemic changes disappeared; also recorded: prevents the EKG ischemic changes
electrocardiographic (EKG) ischemic changes ([1]; oligemic phase, listed as Fructose diphosphate): prevented electrocardiographic ischemic changes
survival after retransfusion [1]: All 8 dogs treated with FDP survived
renal and bowel function, neurological deficit ([1]; surviving dogs): normal renal and bowel function and no neurological deficit was noted
amount of blood uptake ([1]; two FDP animals with reversed flow): 24 % of the shed blood and 17 % of the shed blood
ATP and CP content in the myocardium [2]: increase of ATP and CP in ischemic myocardium, but also in the normally perfused heart muscle
tissue lactic acid concentration [2]: The same phenomenon was observed for the tissue lactic acid concentration
anesthetic required [3]: twice as much anesthetic
ATP (blood; [7]): 1.67 m mole/ml
ATP (blood; [8]): 1.92 m mole/ml
ATP (blood; [9]): 2.2 m mole/ml
ATP (blood; [10]): 2.85 m mole/ml
ATP (blood; [11]): 2.82 m mole/ml
ATP (blood; [12]): 3.40 m mole/ml
effect on carbohydrate metabolism (dog WBC): profound stimulating effect on the carbohydrate metabolism
concentration dependence of ATP production (dog WBC; 5 to 50 mg/ml FDP, no AMP or ADP): independent of the concentration (from 5 to 50 mg/ml), but rather a function of the incubation time
concentration dependence of ATP increase (dog WBC; AMP or ADP added): the increase of ATP becomes a function of the FDP concentration
pyruvic acid concentration, FDP versus glucose (dog WBC; dog WBC): 10 times
force of contraction (rabbit ileum): increases the force of contraction
concentration of FDP in the liver versus plasma [4]: five
ATP, lactate, and FDP in tissues [5]: increase of ATP, lactate, and FDP in all tissues that we have studied
trioses in the Embden-Meyerhof pathway [5]: increases in the trioses
analeptic effect [6]: The same analeptic effect, but to a much lesser degree
